Active and inactive are the calls of the source. The calls are words filed in the database; no cut-off is given here.
Experiments:
[1] = target: Mitogen-activated protein kinase 14 (Homo sapiens, UniProt Q16539); test: Inhibition of human recombinant p38alpha expressed in Escherichia coli incubated for 60 mins in presence of ATP by microplate scintillation counter
LX-2 [2] = test: Anti-fibrotic activity in human LX-2 cells assessed as reduction in alpha-SMA protein expression at 5 uM preincubated with compound for 1 hrs followed by TGFbeta addition and measured after 24 hrs by Western blot analysis; assay type: functional, cell-based; conditions: time 25.0 hrs
LX-2 [3] = test: Anti-fibrotic activity in human LX-2 cells assessed as inhibition of alpha-SMA mRNA expression at 5 uM preincubated with compound for 1 hrs followed by TGFbeta addition and measured after 24 hrs by RT-PCR analysis; assay type: functional, cell-based; conditions: time 25.0 hrs
LX-2 [4] = test: Anti-fibrotic activity in human LX-2 cells assessed as reduction in alpha-SMA protein expression at 20 uM preincubated with compound for 1 hrs followed by TGFbeta addition and measured after 24 hrs by Western blot analysis; assay type: functional, cell-based; conditions: time 25.0 hrs
LX-2 [5] = test: Cytotoxicity against human LX-2 cells assessed as reduction in cell viability upto 100 uM incubated for 24 hrs by MTT assay; assay type: toxicity, cell-based; conditions: lx-2, 24 h
LX-2 [6] = test: Anti-fibrotic activity in human LX-2 cells assessed as reduction in collagen I protein expression at 20 uM preincubated with compound for 1 hrs followed by TGFbeta addition and measured after 24 hrs by Western blot analysis; assay type: functional, cell-based; conditions: time 25.0 hrs
LX-2 [7] = test: Cytotoxicity against human LX-2 cells assessed as reduction in cell viability at 100 uM incubated for 24 hrs by MTT assay; assay type: toxicity, cell-based; conditions: lx-2, 24 h
LX-2 [8] = test: Cytotoxicity against human LX-2 cells assessed as reduction in cell viability at 6.25 uM incubated for 24 hrs by MTT assay; assay type: toxicity, cell-based; conditions: lx-2, 24 h
[9] = Cmax in male Sprague-Dawley rat at 4 mg/kg, iv measured after 8 hrs by UPLC-MS/MS analysis; assay type: ADME, organism-based; conditions: in vivo
[10] = Tmax in male Sprague-Dawley rat at 4 mg/kg, iv measured after 8 hrs by UPLC-MS/MS analysis; assay type: ADME, organism-based; conditions: in vivo
LX-2 [11] = test: Anti-fibrotic activity in human LX-2 cells assessed as inhibition of alpha-SMA expression preincubated with compound for 1 hrs followed by TGFbeta addition and measured after 24 hrs by DAPI staining based confocal laser scanning microscopic analysis; assay type: functional, cell-based; conditions: dose 5-20 µM, time 25.0 hrs
[12] = AUC (0 to infinity) in male Sprague-Dawley rat at 4 mg/kg, iv measured after 8 hrs by UPLC-MS/MS analysis; assay type: ADME, organism-based; conditions: in vivo
[13] = AUC (0 to t) in male Sprague-Dawley rat at 15 mg/kg, po measured after 8 hrs by UPLC-MS/MS analysis; assay type: ADME, organism-based; conditions: in vivo
[14] = Oral bioavailability in male Sprague-Dawley rat at 15 mg/kg measured after 8 hrs by UPLC-MS/MS analysis; assay type: ADME, organism-based; conditions: in vivo
LX-2 [15] = test: Cytotoxicity against human LX-2 cells assessed as reduction in cell viability upto 50 uM incubated for 24 hrs by MTT assay; assay type: toxicity, cell-based; conditions: lx-2, 24 h
[16] = Clearance in male Sprague-Dawley rat at 4 mg/kg, iv measured after 8 hrs by UPLC-MS/MS analysis; assay type: ADME, organism-based; conditions: in vivo
[17] = Cmax in male Sprague-Dawley rat at 15 mg/kg, po measured after 8 hrs by UPLC-MS/MS analysis; assay type: ADME, organism-based; conditions: in vivo
[18] = AUC (0 to t) in male Sprague-Dawley rat at 4 mg/kg, iv measured after 8 hrs by UPLC-MS/MS analysis; assay type: ADME, organism-based; conditions: in vivo
[19] = MRT (0 to t) in male Sprague-Dawley rat at 4 mg/kg, iv measured after 8 hrs by UPLC-MS/MS analysis; assay type: ADME, organism-based; conditions: in vivo
[20] = MRT (0 to t) in male Sprague-Dawley rat at 15 mg/kg, po measured after 8 hrs by UPLC-MS/MS analysis; assay type: ADME, organism-based; conditions: in vivo
[21] = AUC (0 to infinity) in male Sprague-Dawley rat at 15 mg/kg, po measured after 8 hrs by UPLC-MS/MS analysis; assay type: ADME, organism-based; conditions: in vivo
[22] = Half-life in male Sprague-Dawley rat at 4 mg/kg, iv measured after 8 hrs by UPLC-MS/MS analysis; assay type: ADME, organism-based; conditions: in vivo
[23] = Clearance in male Sprague-Dawley rat at 15 mg/kg, po measured after 8 hrs by UPLC-MS/MS analysis; assay type: ADME, organism-based; conditions: in vivo
[24] = Half-life in male Sprague-Dawley rat at 15 mg/kg, po measured after 8 hrs by UPLC-MS/MS analysis; assay type: ADME, organism-based; conditions: in vivo
[25] = Tmax in male Sprague-Dawley rat at 15 mg/kg, po measured after 8 hrs by UPLC-MS/MS analysis; assay type: ADME, organism-based; conditions: in vivo

Sequence of Mitogen-activated protein kinase 14 (Q16539 whole entry): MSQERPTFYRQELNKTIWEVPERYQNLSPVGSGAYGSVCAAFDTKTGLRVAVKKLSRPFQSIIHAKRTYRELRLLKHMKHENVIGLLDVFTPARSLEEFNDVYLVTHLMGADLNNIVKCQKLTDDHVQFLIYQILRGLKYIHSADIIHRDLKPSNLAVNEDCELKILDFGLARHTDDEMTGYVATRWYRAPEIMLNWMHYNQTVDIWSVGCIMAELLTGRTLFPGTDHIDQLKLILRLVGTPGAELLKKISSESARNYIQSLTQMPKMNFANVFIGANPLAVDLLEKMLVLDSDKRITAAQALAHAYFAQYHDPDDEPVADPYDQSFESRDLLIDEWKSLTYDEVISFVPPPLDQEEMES

Cc1cccc(-c2[nH]c(CNC(=S)[C@@H](N)Cc3ccccc3)nc2-c2ccc3ncnn3c2)n1
IC50 [1]: > 3 µM

Cc1cccc(-c2nc(NC(=O)[C@@H]3CCCCN3)sc2-c2ccc3ncnn3c2)n1
IC50 [1]: > 3 µM

Cc1cccc(-c2[nH]c(CNC(=S)[C@H](N)Cc3ccccc3)nc2-c2ccc3ncnn3c2)n1
IC50 [1]: > 1 µM

Cc1cccc(-c2nc(NC(=O)[C@@H](N)Cc3ccccc3)sc2-c2ccc3ncnn3c2)n1
IC50 [1]: > 3 µM

Cc1cccc(-c2[nH]c(CNC(=O)[C@@H]3CCCCN3)nc2-c2ccc3ncnn3c2)n1
IC50 [1]: > 3 µM

Cc1cccc(-c2nc(NC(=O)[C@H](C)N)sc2-c2ccc3ncnn3c2)n1
IC50 [1]: > 1 µM

Cc1cccc(-c2nc(NC(=S)[C@H](N)CC(C)C)sc2-c2ccc3ncnn3c2)n1
IC50 [1]: > 1 µM

Cc1cccc(-c2nn3c(c2-c2ccnc4ccc(C(N)=O)cc24)CCC3)n1
Activity (LX-2 [2]): Active

Cc1cccc(-c2nc(NC(=O)[C@@H](N)CC(C)C)sc2-c2ccc3ncnn3c2)n1
Activity (LX-2 [3]): Active
Activity (LX-2 [4]): Active
IC50 [1]: > 1 µM
Activity (LX-2 [5]): Non-Toxic
Activity (LX-2 [6]): Active

Cc1cccc(-c2[nH]c(CNC(=O)[C@H](C)N)nc2-c2ccc3ncnn3c2)n1
IC50 [1]: > 3 µM

Cc1cccc(-c2nc(NC(=O)[C@H](N)CC(C)C)sc2-c2ccc3ncnn3c2)n1
Activity (LX-2 [3]): Active
Activity (LX-2 [7]): Toxic
Activity (LX-2 [4]): Active
IC50 [1]: > 3 µM
Activity (LX-2 [8]): Non-Toxic
Activity (LX-2 [6]): Active

Cc1cccc(-c2[nH]c(CNC(=O)[C@H](N)CC(C)C)nc2-c2ccc3ncnn3c2)n1
IC50 [1]: > 3 µM

Cc1cccc(-c2nc(NC(=S)[C@@H](N)CC(C)C)sc2-c2ccc3ncnn3c2)n1
IC50 [1]: > 1 µM

Cc1cccc(-c2[nH]c(CNC(=O)[C@@H](N)CC(C)C)nc2-c2ccc3ncnn3c2)n1
IC50 [1]: > 3 µM

Cc1cccc(-c2[nH]c(CNC(=O)[C@H]3CCCCN3)nc2-c2ccc3ncnn3c2)n1
IC50 [1]: > 1 µM

Cc1cccc(-c2nc(NC(=O)[C@H](N)Cc3ccccc3)sc2-c2ccc3ncnn3c2)n1
IC50 [1]: > 3 µM

Cc1cccc(-c2nc(NC(=O)[C@H]3CCCCN3)sc2-c2ccc3ncnn3c2)n1
IC50 [1]: > 3 µM

Cc1cccc(-c2[nH]c(CNC(=O)[C@H](N)Cc3ccccc3)nc2-c2ccc3ncnn3c2)n1
Cmax [9]: 43100 ng/mL
Tmax [10]: 0 h
Activity (LX-2 [11]): Dose-Dependent Effect
Activity (LX-2 [3]): Active
AUC [12]: 12802 ng·h/mL
AUC(0-t) at 8 h [13]: 1220 ng·h/mL
F [14]: 2.59%
Activity (LX-2 [15]): Non-Toxic
clearance [16]: 5.23 mL/min/kg
Cmax [17]: 1390 ng/mL
AUC(0-t) at 8 h [18]: 12500 ng·h/mL
MRT last at 8 h [19]: 1.01 h
MRT last at 8 h [20]: 2.79 h
Activity (LX-2 [4]): Active
AUC [21]: 2667 ng·h/mL
half-life [22]: 2.24 h
CL/F [23]: 109 mL/min/kg
Activity (LX-2 [6]): Active
half-life [24]: 9.14 h
Tmax [25]: 6.6 min
